Target: T1, Human autotaxin enzyme (Homo sapiens, UniProt Q13822)
T1 construct: purchased R&D System
Assay: Evaluation of autotaxin inhibitor, Method C (18:0 Lyso PC substrate, choline assay, Resorufin fluorescence)
Format: biochemical
Settings: Method C (Test Example 3), read-out: Inhibitory activity (enzyme inhibitory activity, IC50)
Method in brief: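 Recombinant human autotaxin with compound and 200 μM 18:0 Lyso PC (stock) in Tris-HCl pH 7.5, NaCl, MgCl2, Triton X-100, 2 h RT. Released choline detected via choline oxidase/peroxidase/Amplex-type reagent, 20 min, resorufin fluorescence 531/598 nm; % inhibition vs no-compound and no-enzyme controls, concentration-response curve.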

| SMILES | IC50 |
| --- | --- |
| CC(C#N)Nc1cc(Cl)ccc1-c1cc2n(n1)[C@@H](C)CN(Cc1ccc(C#N)cc1)C2=O (stereo partly drawn) [Compound I-0325] | ≥ 1000 nM |
| C[C@H]1CN(Cc2ccc(C#N)cc2)C(=O)c2cc(-c3ccc(Cl)cc3Br)nn21 [Compound I-0326] | ≥ 1000 nM |
| C[C@H]1CN(Cc2ccc(C#N)cc2)C(=O)c2cc(-c3ccc(Cl)cc3F)nn21 [Compound I-0327] | ≥ 1000 nM |
| CCNc1cc(Cl)ccc1-c1cc2n(n1)[C@@H](C)CN(Cc1ccc(C#N)cc1)C2=O [Compound I-0328] | 100 to 1000 nM |
| COCc1cc(Cl)ccc1-c1cc2n(n1)[C@@H](C)CN(Cc1ccc(C#N)cc1)C2=O [Compound I-0329] | ≥ 1000 nM |
| CCCCC1CN(CC(=O)NC(C#N)Cc2ccccc2)C(=O)c2cc(-c3ccc(Cl)cc3)nn21 (stereo not drawn) [Compound I-0331] | 100 to 1000 nM |
| CNC(=O)Cc1cc(Cl)ccc1-c1cc2n(n1)[C@@H](C)CN(Cc1ccc(C#N)cc1)C2=O [Compound I-0336] | ≥ 1000 nM |
| CNC(=O)Nc1cc(Cl)ccc1-c1cc2n(n1)[C@@H](C)CN(Cc1ccc(C#N)cc1)C2=O [Compound I-0342] | 100 to 1000 nM |
| C[C@H]1CN(Cc2ccc(C#N)cc2)C(=O)c2cc(-c3c(N)cc(Cl)cc3CO)nn21 [Compound I-0346] | 100 to 1000 nM |
| CC(C)Nc1cc(Cl)ccc1-c1cc2n(n1)[C@@H](C)CN(Cc1ccc(C#N)cc1)C2=O [Compound I-0349] | 100 to 1000 nM |
| C[C@H]1CN(CC(=O)N(C)CCC#N)C(=O)c2cc(-c3ccc(C#N)cc3NC(=O)CF)nn21 [Compound I-0353] | < 10 nM |
| N#Cc1ccc(CN2CC3CC/C=C\CC(=O)Nc4cc(Cl)ccc4-c4cc(n3n4)C2=O)cc1 (stereo not drawn) [Compound I-0358] | 10 to 100 nM |
| C[C@H]1CN(CC(=O)N(C)CCC#N)C(=O)c2cc(-c3ccc(C#N)cc3NC(=O)C(C)(C)C)nn21 [Compound I-0359] | 10 to 100 nM |
| C[C@H]1CN(CC(=O)N(C)CCC#N)C(=O)c2cc(-c3ccc(C#N)cc3NC(=O)CO)nn21 [Compound I-0360] | 100 to 1000 nM |
| C[C@H]1CN(Cc2ccc(C#N)cc2)C(=O)c2cc(-c3c(Br)cc(Cl)cc3CO)nn21 [Compound I-0361] | 100 to 1000 nM |
| CC(=O)Nc1cc(C#N)ccc1-c1cc2n(n1)[C@@H](C)CN(CC1CCCO1)C2=O (stereo partly drawn) [Compound I-0362] | 10 to 100 nM |
| COC(=O)Nc1cc(Cl)ccc1-c1cc2n(n1)[C@@H](C)CN(CC(=O)N(C)CC#N)C2=O [Compound I-0363] | 10 to 100 nM |
| C[C@H]1CN(CC(=O)N(C)CC#N)C(=O)c2cc(-c3ccc(C#N)cc3NC(=O)C3CC3)nn21 [Compound I-0364] | 10 to 100 nM |
| C[C@H]1CN(CC(=O)N(C)CC#N)C(=O)c2cc(-c3ccc(Cl)cc3NC(=O)C3CC3)nn21 [Compound I-0365] | 10 to 100 nM |
| CC(=O)NC1=C(c2cc3n(n2)[C@@H](C)CN(Cc2ccc(C#N)cc2)C3=O)CCC(C(F)(F)F)C1 (stereo partly drawn) [Compound I-0366] | 10 to 100 nM |
| CC(=O)Nc1cc(C#N)ccc1-c1cc2n(n1)[C@@H](C)CN(C1CCN(CC(F)(F)F)C1=O)C2=O (stereo partly drawn) [Compound I-0367] | 10 to 100 nM |
| CC(=O)NC1=C(c2cc3n(n2)[C@@H](C)CN(Cc2ccc(C#N)cc2)C3=O)C(=O)CC(C(F)(F)F)C1 (stereo partly drawn) [Compound I-0368] | 10 to 100 nM |
| CC(=O)NC1=C(c2cc3n(n2)[C@@H](C)CN(Cc2ccc(C#N)cc2)C3=O)C(O)CC(C(F)(F)F)C1 (stereo partly drawn) [Compound I-0369] | 100 to 1000 nM |
| CC(=O)Nc1cc(C#N)ccc1-c1cc2n(n1)C(CC(F)(F)F)CN(Cc1ccc(C#N)cc1)C2=O (stereo not drawn) [Compound I-0370] | 10 to 100 nM |
| N#Cc1ccc(CN2CC(CC(F)(F)F)n3nc(-c4c(C#N)cc(Cl)cc4CO)cc3C2=O)cc1 (stereo not drawn) [Compound I-0371] | 100 to 1000 nM |
| CCCCC1CN(Cc2ccc(C#N)cc2)C(=O)c2cc(-c3ccc(S(F)(F)(F)(F)F)cc3)nn21 (stereo not drawn) [Compound I-0372] | 100 to 1000 nM |

More lines, now with the values ahead:

| IC50 | SMILES |
| --- | --- |
| < 10 nM | CC(=O)Nc1cc(Cl)c(F)cc1-c1cc2n(n1)[C@@H](C)CN(Cc1ccc(C#N)cc1)C2=O [Compound I-0330] |
| 10 to 100 nM | C[C@H]1CN(Cc2ccc(C#N)cc2)C(=O)c2cc(-c3ccc(Cl)cc3NC(=O)CN(C)C)nn21 [Compound I-0332] |
| 10 to 100 nM | CC(=O)Nc1cc(C(F)(F)F)ccc1-c1cc2n(n1)[C@@H](C)CN(Cc1ccc(C#N)cc1)C2=O [Compound I-0333] |
| < 10 nM | CC(=O)Nc1cc(OC(F)(F)F)ccc1-c1cc2n(n1)[C@@H](C)CN(Cc1ccc(C#N)cc1)C2=O [Compound I-0334] |
| < 10 nM | CC(=O)Nc1cc(C#N)ccc1-c1cc2n(n1)[C@@H](C)CN(Cc1ccc(C#N)cc1)C2=O [Compound I-0335] |
| 10 to 100 nM | CC(=O)Nc1cc(Cl)cnc1-c1cc2n(n1)[C@@H](C)CN(Cc1ccc(C#N)cc1)C2=O [Compound I-0337] |
| 10 to 100 nM | CC(=O)Nc1cc(C#N)ccc1-c1cc2n(n1)[C@@H](C)CN(C[C@H]1CNC(=O)O1)C2=O [Compound I-0338] |
| < 10 nM | CC(=O)Nc1cc(OC(F)(F)F)ccc1-c1cc2n(n1)[C@@H](C)CN(C[C@H]1CNC(=O)O1)C2=O [Compound I-0339] |
| 10 to 100 nM | CC(=O)NC[C@@H](O)CN1C[C@H](C)n2nc(-c3ccc(OC(F)(F)F)cc3NC(C)=O)cc2C1=O [Compound I-0340] |
| 10 to 100 nM | CC(=O)Nc1cc(C#N)ccc1-c1cc2n(n1)[C@@H](C)CN(CC(=O)N(C)CCC#N)C2=O [Compound I-0341] |
| 10 to 100 nM | CC(=O)Nc1cc(Cl)ccc1-c1cc2n(n1)[C@@H](C(F)(F)F)CN(Cc1ccc(C#N)cc1)C2=O [Compound I-0343] |
| < 10 nM | CC(=O)Nc1cc(C#N)ccc1-c1cc2n(n1)[C@@H](C)CN(Cc1cccc(C(=O)O)c1)C2=O [Compound I-0344] |
| < 10 nM | CC(=O)Nc1cc(OC(F)(F)F)ccc1-c1cc2n(n1)[C@@H](C)CN(Cc1cccc(C(=O)O)c1)C2=O [Compound I-0345] |
| 10 to 100 nM | CC(=O)Nc1cc(Cl)cc(CO)c1-c1cc2n(n1)[C@@H](C)CN(Cc1ccc(C#N)cc1)C2=O [Compound I-0347] |
| 10 to 100 nM | CC(=O)Nc1cc(C#N)cc(CO)c1-c1cc2n(n1)[C@@H](C)CN(Cc1ccc(C#N)cc1)C2=O [Compound I-0348] |
| < 10 nM | C[C@H]1CN(CC(=O)N(C)CCC#N)C(=O)c2cc(-c3ccc(C#N)cc3NC(=O)C3CC3)nn21 [Compound I-0350] |
| < 10 nM | COCC(=O)Nc1cc(C#N)ccc1-c1cc2n(n1)[C@@H](C)CN(CC(=O)N(C)CCC#N)C2=O [Compound I-0351] |
| 10 to 100 nM | C[C@H]1CN(CC(=O)N(C)CCC#N)C(=O)c2cc(-c3ccc(C#N)cc3NC(=O)CC(F)(F)F)nn21 [Compound I-0352] |
| < 10 nM | C[C@H]1CN(CC(=O)N(C)CCC#N)C(=O)c2cc(-c3ccc(C#N)cc3NC(=O)C(F)(F)F)nn21 [Compound I-0354] |
| < 10 nM | N#Cc1ccc(CN2CC3CCCCCC(=O)Nc4cc(Cl)ccc4-c4cc(n3n4)C2=O)cc1 (stereo not drawn) [Compound I-0355] |
| < 10 nM | CCNc1cc(Cl)cc(CO)c1-c1cc2n(n1)[C@@H](C)CN(Cc1ccc(C#N)cc1)C2=O [Compound I-0356] |
| < 10 nM | N#Cc1ccc(CN2CC3CC/C=C/CC(=O)Nc4cc(Cl)ccc4-c4cc(n3n4)C2=O)cc1 (stereo not drawn) [Compound I-0357] |
